{"source": "paper PMC8419995", "about": "“In vitro and in vivo efficacy of thiacloprid against Echinococcus multilocularis” (Parasites & Vectors, 2021)", "key": {"[1]": {"test_system": "IL-2, IL-4, IL-10 and IgE", "experiment": "ELISA of cytokines and IgE in infected mice", "assay_type": "in vivo", "conditions": "infected BALB/c mice, 6 weeks oral treatment", "description": "In vitro-grown metacestode vesicles were pressed through a 500 µm mesh and washed three times with sterile PBS. The parasite tissue was then taken up in an equal volume of sterile PBS. Each mouse was intraperitoneally injected with 200 μl suspension. Seven mice were injected with 200 μl PBS as the control group. Twenty-eight infected mice were randomly distributed into four groups (7 mice/group): the untreated group was not administered any drug; the ABZ group was treated with ABZ orally (100 mg/kg/day); and the Thia15 group and Thia30 group received thiacloprid orally (15 mg/kg/day and 30 mg/kg/day). Treatments of mice started 2 weeks post-infection, and treatments were administered daily for 6 weeks. After 6 weeks of treatment, whole blood via the orbital sinus was collected from mice and the animals were euthanized by CO2. Blood samples were incubated at 37 °C for 1 h and centrifuged at 3500 rpm for 10 min at 4 °C. The serum was harvested and stored at –20 °C for IL-2, IL-4, IL-10 and IgE detection. All metacestode tissues were collected, and the total wet weight of metacestodes per mice was determined. Furthermore, the content of cytokines in microcyst fluid was detected by enzyme-linked immunosorbent assay (ELISA). Several metacestode tissue specimens were processed for transmission electron microscopy (TEM) and histopathological experiments.\nELISA was employed to detect serum IL-2, IL-4, IL-10 and IgE following the manufacturer's instructions. Mouse collagen I and collagen III ELISA kits were used to measure the levels of collagen I and collagen III in the cell culture supernatant after intervention with thiacloprid. All ELISA kits were provided by Elabscience Biotechnology Co., Ltd., Wuhan, China. The OD value at 450 nm was read with a Tecan Infinite M200 PRO enzyme reader (Männedorf, Switzerland), and the concentration was calculated according to the standard curve."}, "[2]": {"test_system": "E. multilocularis protoscoleces", "experiment": "Protoscolex viability, 0.1% eosin exclusion test", "assay_type": "cell-based, Echinococcus multilocularis", "description": "Viable protoscoleces were cultured in Medium 199, supplemented with 1% penicillin–streptomycin, 50 μg/ml gentamicin and 4 mg/ml glucose according to a previously described method. […] PZQ was used as a positive control. The protoscoleces were cultured in an incubator at 37 °C and 5% CO2 for 7 days. Additionally, 0.1% eosin exclusion test was used to evaluate the viability of protoscoleces. To reduce the bias as much as possible, protoscolex viability was observed by two experimenters under double-blind conditions. Each experiment was conducted three times."}, "acetylcholinesterase": {"test_system": "acetylcholinesterase", "experiment": "Acetylcholinesterase activity (Ellman) in extracts of protoscoleces, metacestodes and germinal cells", "assay_type": "biochemical, Echinococcus multilocularis", "conditions": "extract; thiacloprid 5 μM, 37 °C 10 min; BW284c51 positive control", "description": "The effects of thiacloprid on the acetylcholinesterase activity of E. multilocularis protoscoleces, metacestodes and germinal cells were determined according to a previously described method. The protoscoleces, metacestode and germinal cells were washed twice with PBS and homogenized with an electric homogenizer in precooled PBS. Centrifugation of the homogenates was performed at 100,000×g for 30 min. The protein concentration of the supernatant was determined by the modified Lowry method according to the instructions, and the concentration was adjusted to 2 mg/ml. Thiacloprid (5 μM) was added to the extract and incubated at 37 °C for 10 min. The extract was supplemented with 0.1% DMSO as control. Subsequently, acetylcholinesterase activity was assessed according to Ellman’s procedure using a microplate with 260 µl of 0.1 M PBS buffer pH 8.0, 10 µl of 10 mM dithiobisnitrobenzoic acid solution, 2.5 µl of 75 mM substrate (acetylthiocholine iodide) and 25 µl of the sample treated with thiacloprid. The OD increment was measured at 412 nm using an Infinite M200 PRO reader (Tecan). Each experiment was conducted three times. BW284c51 (CAS number: 402-40-4, Sigma) was used as a positive control."}, "[3]": {"test_system": "Human foreskin fibroblasts (HFF)", "experiment": "alamarBlue cytotoxicity assay, HFF", "assay_type": "cell-based", "conditions": "Fibroblast, 120 h, 5 days", "description": "An alamarBlue assay was used to assess the toxicity of thiacloprid to confluent and pre-confluent mammalian cells in vitro [29]. Human foreskin fibroblasts (HFF, Procell) and rat hepatoma cells (RH, Procell) were seeded into 96-well cell culture plates in DMEM supplemented with 10% FBS and 1% penicillin–streptomycin at 37 °C and 5% CO2. For detecting the growth inhibitory effects of confluent cells, HFF and RH cells were seeded at 10,000 cells per well and 50,000 cells per well, respectively. After overnight culture, thiacloprid or PZQ was added and diluted in serial concentrations (0, 0.6, 1.2, 2.5, 5, 10, 20, 40, 80 and 160 μM). For detecting growth inhibitory effects on proliferating cells, cells were seeded at 1000 (HFF) and 5000 (RH) cells per well. Thiacloprid was added after 5 h of cell attachment. To measure the viability of the cells after treatment for 5 days, the alamarBlue assay was employed and viability calculated as described previously."}, "[4]": {"test_system": "E. multilocularis metacestodes", "experiment": "PGI assay (phosphoglucose isomerase release) on metacestode vesicles", "assay_type": "cell-based, Echinococcus multilocularis", "description": "The efficacy of thiacloprid against the E. multilocularis metacestode was evaluated by applying a phosphoglucose isomerase (PGI) assay that measures the release of the enzyme phosphoglucose isomerase upon physical impairment of metacestodes. In brief, medium without phenol red (DMEM, 1% penicillin/streptomycin sulfate, 2 mM L-glutamine) was added to the same volume of vesicles and distributed to 48-well (12–15 per vesicles) plates. Subsequently, metacestodes were incubated for 5 days with different concentrations (0, 0.06, 1.2, 2.5, 5, 10, 20, 40, 80 and 160 μM) of thiacloprid or praziquantel (PZQ), after which PGI release was quantified exactly as described in Stadelmann et al.. Triton X-100 (0.1% in PBS) was applied as a positive control (maximal release of vesicle fluid). Each condition was tested in biological triplicate. After 5 days of incubation, 200 μl medium supernatant was collected from each well and stored at − 20 °C until further measurements were performed. PGI measurements were performed as described earlier, except that an Infinite M200 PRO reader (Tecan, Männedorf, Switzerland) was used to measure the increase in absorbance at 340 nm. PGI activity was calculated using the EC50 calculator (https://www.aatbio.com/tools/ec50-calculator) from the linear regression of the enzyme reaction over time and presented as a percentage relative to the values obtained by treatment of vesicles with 0.1% Triton X-100."}}, "note": "Like-named read-outs stand apart in the source and are kept apart here.", "data": [{"molecule": "N#C/N=C1\\SCCN1Cc1ccc(Cl)nc1", "note": "[thiacloprid]", "values": [{"measurement": "Expression of IL-2, IL-4 and IL-10 in microcyst fluid", "setting": "[1]", "result": "upregulated"}, {"measurement": "Expression of IL-2, IL-4 and IL-10 in serum compared with the untreated group", "setting": "[1]", "result": "upregulated"}, {"measurement": "Expression of IgE in serum compared with the untreated group", "setting": "[1]", "result": "downregulated"}, {"measurement": "Effect on protoscolex viability", "setting": "[2]; 1.2 μM", "result": "no significant effect"}, {"measurement": "Dead protoscoleces", "setting": "[2]; 5 μM for 4 days", "result": "47.33 ± 4.04", "unit": "%"}, {"measurement": "Acetylcholinesterase activity in protoscoleces, metacestode vesicles and germinal cells", "setting": "acetylcholinesterase", "result": "suppressed"}, {"measurement": "IC50", "setting": "[3]; confluent cells, read-out: IC50 on confluent HFF", "result": "68.7 ± 9.71", "unit": "µM"}, {"measurement": "IC50", "setting": "[3]; pre-confluent cells, read-out: IC50 on pre-confluent HFF", "result": "64.8 ± 5.79", "unit": "µM"}, {"measurement": "Activity in PGI assay screening", "setting": "[4]; 20 μM, 5 days and 12 days, active if exceeding 20% relative PGI release", "result": "showed activity"}, {"measurement": "EC50", "setting": "[4]; Echinococcus multilocularis, 120 h, read-out: EC50 against E. multilocularis metacestode by the PGI assay", "result": "4.54 ± 1.1", "unit": "µM"}]}]}
